Measured values as given in patent US9868766B2, “Peptides as oxytocin agonists” (Hoffmann-La Roche Inc., priority 2012, dated 2018).
Positions of bridges follow the written chain, without caps; N, C: chain ends. Non-standard residues stand in square brackets, D forms with d. Residues, ends and D or L forms follow the SMILES beside them. Phe(4-NH2) = Nc1ccc(C[C@H](N)C(=O)O)cc1; αMeL = CC(C)C[C@](C)(N)C(=O)O; Orn = NCCC[C@H](N)C(=O)O; Aze = O=C(O)[C@@H]1CCN1; Sar = CNCC(=O)O

How the values were obtained:
Format in all cases: cell-based
human V1a receptor = molecular target: T1, human V1a receptor (Homo sapiens, UniProt P37288); test: Calcium flux assay (FLIPR), agonist mode, CHO cells expressing human V1a; conditions: for EC50: CHO cells stably expressing human V1a, calcium flux, read-out: hV1a EC50; for hV1a efficacy (%): maximum response normalized to endogenous full agonist = 100%
T1 construct: expressed in transfected cells
T1 sequence (P37288 whole entry): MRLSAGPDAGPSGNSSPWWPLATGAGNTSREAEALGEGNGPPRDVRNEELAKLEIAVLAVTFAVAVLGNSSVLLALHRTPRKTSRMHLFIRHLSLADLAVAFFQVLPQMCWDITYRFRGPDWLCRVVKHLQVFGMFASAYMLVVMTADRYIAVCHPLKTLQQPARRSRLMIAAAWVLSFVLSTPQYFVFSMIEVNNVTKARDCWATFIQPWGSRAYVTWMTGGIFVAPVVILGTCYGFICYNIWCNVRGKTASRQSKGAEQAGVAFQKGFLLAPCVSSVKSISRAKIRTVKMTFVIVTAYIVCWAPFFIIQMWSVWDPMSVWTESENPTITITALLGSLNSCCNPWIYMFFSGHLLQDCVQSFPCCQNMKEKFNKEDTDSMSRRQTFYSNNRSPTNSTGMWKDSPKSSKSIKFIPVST
Text: (§1) Chines Hamster Ovary (CHO) cells were transfected with expression plasmids encoding either the human V1a, the human Oxytocin (OTR) or the humanV2 receptor, the later in combination with the chimeric Gqs5 G protein to redirect the signal to Calcium flux. Stable cells were cloned by limiting dilution to yield monoclonal cell lines expressing either human V1a, human V2+Gqs5 or human OTR receptors and selected based on functional responses detected on a fluorometric imaging plate reader (FLIPR) detecting Calcium flux in the cell after receptor activation. The stable cell lines were grown in F-12 K Nutrient Mixture (Kaighns Modification), containing 10% foetal bovine serum (FBS), 1% penicillin-streptomycin, 1% L-glutamate, 200 ug/ml Geneticin at 37° C. in a 10% CO2 incubator at 95% humidity.
(§2) On the afternoon before the assay, cells were plated at a density of 50,000 cells/well into black 96 well plates with clear bottoms to allow cell inspection and fluorescence measurements from the bottom of each well. The density of cells was sufficient to yield a confluent monolayer the next day. Hanks balanced salt solution, without phenol red, containing 20 mM HEPES (pH 7.3) and 2.5 mM probenecid (assay buffer) was prepared fresh for each experiment. Compound dilutions were made using a Beckman Biomek 2000 laboratory automation workstation, in assay buffer containing 1% DMSO. The dye-loading buffer consisted of a final concentration of 2 μM Fluo-4-AM (dissolved in DMSO and pluronic acid) in assay buffer. The existing culture media was removed from the wells and 100 μl of the dye-loading buffer was added to each well and incubated for approximately 60 min at 37° C. in a 5% CO2 incubator at 95% humidity. Once dye-loaded, the cells were washed thoroughly on an Embla cell washer with the assay buffer to remove any unincorporated dye. Exactly 100 μl assay buffer was left in each well.
(§3) Each 96 well plate containing dye-loaded cells was placed into the FLIPR machine and the laser intensity set to a suitable level to detect low basal fluorescence. To test compounds as agonists, 25 μl diluted compound was added to the plate 10 seconds into the fluorescent measurements and fluorescent response was recorded for 5 minutes. The fluorescence data was normalized to the endogenous full agonist dose-response set at 100% for the maximum response and 0% for the minimum. Each agonist concentration-response curve was constructed using a four parameter logistic equation with Microsoft Excel XLFit as follows: Y=Minimum+((Maximum−Minimum)/(1+10^(Log EC50-X)nH)), where y is the % normalized fluorescence, minimum is the minimum y, maximum is the maximum y, log EC50 is the log10 concentration which produces 50% of the maximum induced fluorescence, x is the log10 of the concentration of the agonist compound and H is the slope of the curve (the Hill Coefficient). The maximum value gives the efficacy of the agonist test compound in percentage. The concentration of agonist that produced a half-maximal response is represented by the EC50 value, the logarithm of which yielded the pEC50 value.

[1] = molecular target: T2, human Oxytocin (OTR) receptor (Homo sapiens, UniProt P30559); test: Calcium flux assay (FLIPR), agonist mode, CHO cells expressing human OTR; conditions: for EC50: CHO cells stably expressing human OTR, calcium flux, read-out: hOT EC50; for hOT efficacy (%) / Emax: maximum response normalized to endogenous full agonist = 100%; for Emax: CHO, read-out: hOT efficacy (%)
T2 construct: expressed in transfected cells
T2 sequence (P30559 1-389): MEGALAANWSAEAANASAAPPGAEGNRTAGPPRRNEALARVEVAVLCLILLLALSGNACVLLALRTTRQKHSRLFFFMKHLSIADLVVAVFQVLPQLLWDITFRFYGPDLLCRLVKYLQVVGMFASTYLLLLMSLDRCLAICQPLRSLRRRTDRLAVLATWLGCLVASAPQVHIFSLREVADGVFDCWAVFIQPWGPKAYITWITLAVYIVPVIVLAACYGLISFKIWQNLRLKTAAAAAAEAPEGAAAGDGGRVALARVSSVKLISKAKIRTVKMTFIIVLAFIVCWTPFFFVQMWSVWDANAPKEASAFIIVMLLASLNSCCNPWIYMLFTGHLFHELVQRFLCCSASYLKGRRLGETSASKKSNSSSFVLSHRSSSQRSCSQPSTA
Text: as §1, with “activation.” for “activation. The stable cell lines were grown in F-12 K Nutrient Mixture (Kaighns Modification), containing 10% foetal bovine serum (FBS), 1% penicillin-streptomycin, 1% L-glutamate, 200 ug/ml Geneticin at 37° C. in a 10% CO2 incubator at 95% humidity.”
as §2, with “The existing culture media was removed from the wells and 100 μl of the dye-loading buffer was added to each well and incubated for approximately 60 min at 37° C. in a 5% CO2 incubator at 95% humidity.” left out
Each 96 well plate containing dye-loaded cells was placed into the FLIPR machine and the laser intensity set to a suitable level to detect low basal fluorescence. To test compounds as agonists, 25 μl diluted compound was added to the plate 10 seconds into the fluorescent measurements and fluorescent response was recorded for 5 minutes. The fluorescence data was normalized to the endogenous full agonist dose-response set at 100% for the maximum response and 0% for the minimum. […] The concentration of agonist that produced a half-maximal response is represented by the EC50 value, the logarithm of which yielded the pEC50 value.

human V2 receptor = molecular target: T3, human V2 receptor (Homo sapiens, UniProt P30518); test: Calcium flux assay (FLIPR), agonist mode, CHO cells expressing human V2 + Gqs5; conditions: for EC50: CHO cells stably expressing human V2 + chimeric Gqs5, calcium flux, read-out: hV2 EC50; for Emax: CHO, maximum response normalized to endogenous full agonist = 100%, read-out: hV2 efficacy (%)
T3 construct: expressed in transfected cells
T3 sequence (P30518 whole entry): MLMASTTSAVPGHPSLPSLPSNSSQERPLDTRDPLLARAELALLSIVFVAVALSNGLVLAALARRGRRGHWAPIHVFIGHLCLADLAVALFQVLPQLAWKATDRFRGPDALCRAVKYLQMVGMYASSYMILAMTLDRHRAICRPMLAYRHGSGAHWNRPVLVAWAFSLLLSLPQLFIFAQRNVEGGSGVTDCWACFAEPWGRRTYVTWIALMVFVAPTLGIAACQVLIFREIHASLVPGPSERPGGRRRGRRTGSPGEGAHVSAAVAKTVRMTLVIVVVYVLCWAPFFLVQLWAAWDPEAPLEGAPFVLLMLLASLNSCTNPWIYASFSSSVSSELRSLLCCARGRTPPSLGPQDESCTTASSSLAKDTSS
Text: as §1, §2, §3

SMILES | EC50 (human V1a receptor) [nM] | EC50 [1] [nM] | hOT efficacy (%) [1] [%] | EC50 (human V2 receptor) [nM] | Emax (human V2 receptor) [%] | hV1a efficacy (%) (human V1a receptor) | Emax [1] [%]
CC[C@H](C)[C@@H]1NC(=O)[C@H](Cc2ccc(O)cc2)NC(=O)CNC(=O)CC[C@@H](C(=O)N(C)CC(=O)N[C@@H](Cc2ccc(N)cc2)C(=O)NCC(N)=O)NC(=O)[C@H](CC(N)=O)NC(=O)[C@H](CCC(N)=O)NC1=O [Example 1] (GYIQNE[Sar][Phe(4-NH2)]G-NH2; lactam N-6) | > 27000 | 10 | 111 | 4800 | 107 |  | 
CC[C@H](C)[C@@H]1NC(=O)[C@H](Cc2ccc(N)cc2)NC(=O)CNC(=O)CC[C@@H](C(=O)N(C)CC(=O)N[C@@H](CC(C)C)C(=O)NCC(N)=O)NC(=O)[C@H](CC(N)=O)NC(=O)[C@H](CCC(N)=O)NC1=O [Example 2] (G[Phe(4-NH2)]IQNE[Sar]LG-NH2; lactam N-6) | > 27000 | 9 | 112 | 7910 | 74 |  | 
CC[C@H](C)[C@@H]1NC(=O)[C@H](Cc2ccc(O)cc2)NC(=O)CNC(=O)CC[C@@H](C(=O)NCC(=O)N[C@@H](CC(C)C)C(=O)NCC(N)=O)NC(=O)[C@H](CC(N)=O)NC(=O)[C@H](CCC(N)=O)NC1=O [Example 6] (GYIQNEGLG-NH2; lactam N-6) | > 27000 | 11 | 95 |  |  |  | 
CC[C@H](C)[C@@H]1NC(=O)[C@H](Cc2ccc(N)cc2)NC(=O)CNC(=O)CC[C@@H](C(=O)N2CCC[C@H]2C(=O)N[C@@H](CC(C)C)C(=O)NCC(N)=O)NC(=O)[C@H](CC(N)=O)NC(=O)[C@H](CCC(N)=O)NC1=O [Example 10] (G[Phe(4-NH2)]IQNEPLG-NH2; lactam N-6) | > 2700 | 17 | 91 |  |  |  | 
CC[C@H](C)[C@@H]1NC(=O)[C@H](Cc2ccc(O)cc2)NC(=O)CNC(=O)CC[C@@H](C(=O)N2CCC[C@H]2C(=O)N[C@@H](Cc2ccc(N)cc2)C(=O)NCC(N)=O)NC(=O)[C@H](CC(N)=O)NC(=O)[C@H](CCC(N)=O)NC1=O [Example 11] (GYIQNEP[Phe(4-NH2)]G-NH2; lactam N-6) | > 27000 | 11 | 94 |  |  |  | 
CC[C@H](C)[C@@H]1NC(=O)[C@H](Cc2ccc(O)cc2)NC(=O)CNC(=O)CC[C@@H](C(=O)N2CCC[C@H]2C(=O)N[C@H](CC(C)C)C(=O)NCC(N)=O)NC(=O)[C@H](CC(N)=O)NC(=O)[C@H](CCC(N)=O)NC1=O [Example 15] (GYIQNEP[dL]G-NH2; lactam N-6) | > 12000 | 52 | 102 |  |  |  | 
CC[C@H](C)[C@@H]1NC(=O)[C@H](Cc2ccc(O)cc2)NC(=O)CNC(=O)CC[C@@H](C(=O)N[C@@H](C)C(=O)N[C@@H](C)C(=O)NCC(N)=O)NC(=O)[C@H](CC(N)=O)NC(=O)[C@H](CCC(N)=O)NC1=O [Example 16] (GYIQNEAAG-NH2; lactam N-6) | > 12000 | 30 | 105 |  |  |  | 
CC[C@H](C)[C@@H]1NC(=O)[C@H](Cc2ccc(O)cc2)NC(=O)CNC(=O)CC[C@@H](C(=O)N[C@@H](C)C(=O)N[C@@H](CC(C)C)C(=O)NCC(N)=O)NC(=O)[C@H](CC(N)=O)NC(=O)[C@H](CCC(N)=O)NC1=O [Example 17] (GYIQNEALG-NH2; lactam N-6) | > 12000 | 45 | 92 |  |  |  | 
CC[C@H](C)[C@@H]1NC(=O)[C@H](Cc2ccc(O)cc2)NC(=O)CNC(=O)CC[C@@H](C(=O)N2CCC[C@H]2C(=O)N[C@@H](C)C(=O)NCC(N)=O)NC(=O)[C@H](CC(N)=O)NC(=O)[C@H](CCC(N)=O)NC1=O [Example 18] (GYIQNEPAG-NH2; lactam N-6) | > 12000 | 24 | 91 |  |  |  | 
CC[C@H](C)[C@@H]1NC(=O)[C@H](Cc2ccc(O)cc2)NC(=O)CNC(=O)CC[C@@H](C(=O)N2CCC[C@H]2C(=O)N[C@H](C(=O)NCC(N)=O)C(C)C)NC(=O)[C@H](CC(N)=O)NC(=O)[C@H](CCC(N)=O)NC1=O [Example 19] (GYIQNEPVG-NH2; lactam N-6) | 127 | 1.5 |  |  |  | 33 | 122
CC[C@H](C)[C@@H]1NC(=O)[C@H](Cc2ccc(O)cc2)NC(=O)CNC(=O)CC[C@@H](C(=O)N2CCC[C@H]2C(=O)N[C@@H](CC(C)C)C(=O)NCC(N)=O)NC(=O)[C@H](CC(N)=O)NC(=O)[C@H](CCCN)NC1=O [Example 20] (GYI[Orn]NEPLG-NH2; lactam N-6) | > 12000 | 40 |  |  |  |  | 
CC[C@H](C)[C@@H]1NC(=O)[C@H](Cc2ccc(O)cc2)NC(=O)CNC(=O)CC[C@@H](C(=O)N2CCC[C@H]2C(=O)N[C@@H](CCCCN)C(=O)NCC(N)=O)NC(=O)[C@H](CC(N)=O)NC(=O)[C@H](CCC(N)=O)NC1=O [Example 21] (GYIQNEPKG-NH2; lactam N-6) | 32 | 12 | 105 |  |  | 55 | 
CC[C@H](C)[C@@H]1NC(=O)[C@H](Cc2ccc(O)cc2)NC(=O)CNC(=O)CC[C@@H](C(=O)N(C)CC(=O)N[C@@H](CCSC)C(=O)NCC(N)=O)NC(=O)[C@H](CC(N)=O)NC(=O)[C@H](CCC(N)=O)NC1=O [Example 35] (GYIQNE[Sar]MG-NH2; lactam N-6) |  |  |  |  | 104 |  | 111
CC[C@H](C)[C@@H]1NC(=O)[C@H](Cc2ccc(O)cc2)NC(=O)CNC(=O)CC[C@@H](C(=O)N2CC[C@H]2C(=O)N[C@@H](CC(C)C)C(=O)NCC(N)=O)NC(=O)[C@H](CC(N)=O)NC(=O)[C@H](CCC(N)=O)NC1=O [Example 50] (GYIQNE[Aze]LG-NH2; lactam N-6) | > 27000 | 3.6 |  |  |  |  | 99
CC[C@H](C)[C@@H]1NC(=O)[C@H](Cc2ccc(O)cc2)NC(=O)CNC(=O)CC[C@@H](C(=O)N(C)CC(=O)N[C@@](C)(CC(C)C)C(=O)NCC(N)=O)NC(=O)[C@H](CC(N)=O)NC(=O)[C@H](CCC(N)=O)NC1=O [Example 51] (GYIQNE[Sar][αMeL]G-NH2; lactam N-6) | > 27000 | 13 | 97 |  |  |  | 
